Experimental findings from patent publication US7629368B2, “Nitroderivatives as drugs for diseases having an inflammatory basis” (Nicox S.A., priority 2000, dated 2009) are described below.

Data set [1] relates to Human adenocarcinoma (HT29) cells. Put plainly: Antiproliferative activity in cancerous cells, cellular growth by haemocytometer. The note with it: 96 hours, controls = 100, read-out: Proliferation %. The data set is classed as cell-based. The procedure: Determination of the Antiproliferative Activity of the Compounds of the Invention in Cancerous Cells.
Human adenocarcinoma (HT29) cells taken from colon affected by cancerous process were transferred into plates with 24 wells containing a cellular culture medium formed by 10% of foetal bovine serum, penicillin (50 U/ml), streptomycin ([…]) and PEG 400 (polyethylenglycol). After 24 hours a part of the plates is inoculated with the tested compounds dissolved in the carrier (PEG 400). 96 hours after the inoculation of the compounds the cellular growth was measured by haemocytometer. The results, reported in Table 2, are expressed as percentage of the cellular proliferation with respect to the controls.

Data set [2] deals with PC3 human epithelial cells of prostate cancer. Put plainly: Antiproliferative activity, MTT, prostate cancer line PC3. The data set is classed as cell-based. The note with it: Epithelial cell, 96 h, 4 days, vs DMSO 1%, read-out: Inhibition of the proliferative activity (%); for inhibition at 100 µM: 10^-4 M; for inhibition at 10 µM: 10^-5 M; for inhibition at 1 µM: 10^-6 M. How it is done:
(§1) Determination of the Antiproliferative Activity of the Compounds of the Invention in Cancerous Epithelial Cells of Bladder and Prostate.
(§2) The experiment was carried out by using three human epithelial cellular lines of the prostate cancer (PNT1A; LLNCaP; PC3) and three human epithelial cellular lines of the bladder cancer (T24; 647V; 1207), the various types of cellular lines are identified on the basis of the characteristics, in particular of the aggressiveness, of the cancerous process.
(§3) The cancerous cells are sown, with an initial concentration of 20,000 cells/cm^2, in plates having 96 wells with a cellular culture medium RPMI added with foetal bovine serum 5% and L-Glutamine 1%. Solutions in dimethylsulphoxide of the tested compounds at three different concentrations (10^−6 M; 10^−5M; 10^−4M) or the carrier (DMSO 1%) are added to the culture medium. 4 days after the treatment the cellular growth was measured by the method with MTT (3-[4,5-dimethylthiazol-2-yl]-2,5-diphenyltetrazolium bromide) de-scribed by Turner in: Turner T., Chen P., Goodly L. J., Wells A. Clin. Exp. Metastasis 1996, 14, 409-418. The results, reported in Table 3, are expressed as inhibition percentage of the cellular proliferation determined by measuring the cellular proliferation in the cellular cultures treated with the tested compounds with respect to that measured in cellular cultures treated with dimethylsulphoxide 1%.

In data set [3] the test system is PNT1A human epithelial cells of prostate cancer. Put plainly: Antiproliferative activity, MTT, prostate cancer line PNT1A. The note with it: 96 h, 4 days, vs DMSO 1%, read-out: Inhibition of the proliferative activity (%); for inhibition at 100 µM: 10^-4 M; for inhibition at 10 µM: 10^-5 M; for inhibition at 1 µM: 10^-6 M. It counts as cell-based. How it is done: as §1, §2, §3

The subject of data set [4] is 1207 human epithelial cells of bladder cancer. Put plainly: Antiproliferative activity, MTT, bladder cancer line 1207. The data set is classed as cell-based. To be noted: Epithelial cell, 96 h, 4 days, vs DMSO 1%, read-out: Inhibition of the proliferative activity (%); for inhibition at 100 µM: 10^-4 M; for inhibition at 10 µM: 10^-5 M; for inhibition at 1 µM: 10^-6 M. How it is done: as §1, §2, §3

In data set [5] the test system is T24 human epithelial cells of bladder cancer. In words: Antiproliferative activity, MTT, bladder cancer line T24. The note with it: Epithelial cell, 96 h, 4 days, vs DMSO 1%, read-out: Inhibition of the proliferative activity (%); for inhibition at 100 µM: 10^-4 M; for inhibition at 10 µM: 10^-5 M; for inhibition at 1 µM: 10^-6 M. It counts as cell-based. How it is done:
as §1, §2, §3

Data set [6] has as its system 647V human epithelial cells of bladder cancer. Put plainly: Antiproliferative activity, MTT, bladder cancer line 647V. It counts as cell-based. To be noted: 96 h, 4 days, vs DMSO 1%, read-out: Inhibition of the proliferative activity (%); for inhibition at 100 µM: 10^-4 M; for inhibition at 10 µM: 10^-5 M; for inhibition at 1 µM: 10^-6 M. The procedure:
as §1, §2, §3

Data set [7] relates to human epithelial cellular lines of the prostate cancer and of the bladder cancer. In words: Antiproliferative activity in prostate and bladder cancer lines, summary in words. It counts as cell-based. The procedure:
as §2, §3
The compound of Ex. 7, reported in the Table with the simplified denomination of nitrooxybutyl ester of the aspirin der. with ferulic ac. is active, at 10^−5 concentrations, in prostate tumours as shown by the results obtained on the cellular lines LNCaP and PC3.

The subject of data set [8] is LNCaP human epithelial cells of prostate cancer. Put plainly: Antiproliferative activity, MTT, prostate cancer line LNCaP. It counts as cell-based. To be noted: 96 h, 4 days, vs DMSO 1%, read-out: Inhibition of the proliferative activity (%); for inhibition at 100 µM: 10^-4 M; for inhibition at 10 µM: 10^-5 M; for inhibition at 1 µM: 10^-6 M. How it is done:
as §1, §2, §3

The subject of data set [9] is liver injury induced by concanavalin A. Put plainly: Protection from liver injury induced by concanavalin A. The data set is classed as in vivo. To be noted: ip; plasmatic glutamic-pyruvic transaminase vs treated control group (=100); 200 mg/kg intraperitoneal; 8 hours after concanavalin A 0.3 mg/rat i.v. The source says: Determination of the capability of the compounds of the invention to protect the animals from the liver injury induced by concanavalin A.
The model in vivo used in the present example has been described in Tiegs G, Hentshel J, A Wendel. A T cell-dependent experimental liver injury in mice induced by Concanavalin A. J. Clin. Invest. 1992; 90:196-203.
The animals ([…] of Swiss stock weighing about 20 g) are divided in groups of at least No. 10 animals for group.
The animals receive concanavalin and solvent (treated control group), solvent (polyethylene glycol 400-untreated control group), concanavalin and tested compound dissolved in the solvent (treated groups).
Rats are treated intravenously with concanavalin A (0.3 mg/rat), and after 5 minutes they receive by intraperitoneal injection the tested compounds, at the doses reported in Table 1, dissolved in polyethylenglycol 400.
Eight hours after the concanavalin A injection all the animals were sacrificed and the blood collected and examined. The data, reported in Table 1, are expressed as value of the plasmatic glutamic-pyruvic transaminase percentage of the animals treated with the tested compound with respect to the animals of the treated control group.

`CC(=O)Oc1ccccc1C(=O)Oc1ccc(CO[N+](=O)[O-])cc1` [Ex. 6, 2-(acetyloxy)benzoic Acid 4-(nitrooxymethyl)phenyl ester]: the melting point was 86 to 88 °C. Besides, the activity at 10 µM in data set [1] (HT-29, 10 μM) was determined as 0%.
`COc1cc(/C=C/C(=O)OCCCCO[N+](=O)[O-])ccc1OC(=O)c1ccccc1OC(C)=O` [Ex. 7, trans-3-[4-[2-(acetyloxy)benzoyloxy]-3-methoxyphenyl]-2-propenoic acid 4-(nitrooxy)butyl ester]: the inhibition at 100 µM in [2] was 69%; in data set [3] it was 72%; in data set [4], 82%; in data set [5], 55%; in data set [6], 50%; in data set [8] it was 81%. Besides, the inhibition at 10 µM turned out to be 30% in data set [2]; 0% in [3]; 24% in data set [4]; 0% in data set [5]; 0% in [6]; 47% in data set [8]. Besides, the inhibition at 1 µM in [2] was 1%; in [3], 0%; in data set [4], 4%; in data set [5], 2%; in [6] it was 0%; in data set [8], 20%. Also, the “activity in prostate tumours (in words)” value in data set [7] (10^-5 concentrations, cellular lines LNCaP and PC3) was “active”. Moreover, the activity at 300 µM in [1] (HT-29, 300 μM) was determined as 50%.
For the compound `CC1=C(CC(=O)OCCCCO[N+](=O)[O-])c2cc(F)ccc2/C1=C\c1ccc([S+](C)[O-])cc1` (stereo not shown) [Ex. 18], the inhibition at 100 µM in data set [2] is 74%; in data set [3] it was 81%; in data set [4], 88%; in data set [5] it was 93%; in data set [6], 92%; in [8] it was 88%. Besides, the inhibition at 10 µM in data set [2] was found to be 68%; in [3] it was 38%; in data set [4], 74%; in data set [5] it was 82%; in data set [6] it was 80%; in data set [8], 74%. Also, the inhibition at 1 µM in [2] is 5%; in data set [3], 3%; in data set [4], 0%; in data set [5], 0%; in data set [6], 9%; in data set [8], 17%. Moreover, the response vs control in vivo at 200 mg/kg in [9] stood at 18%. Besides, the “inhibitory effect on the proliferation of all kinds of cancerous cells examined (in words)” value in [7] (10^-5 M, all six prostate and bladder lines) is reported as “strong inhibitory effect”. In addition, in data set [1] (HT-29, 50 μM), the activity at 50 µM worked out at 0%.
